Measured values reported in ChEMBL document CHEMBL1201862, “PubChem BioAssay data set” (2004).
Calls of active or inactive are those of the source.

What was measured:
[1] = microbe, parasite or virus in culture; type: functional; settings: Mycobacterium tuberculosis
[2] = viability of HCT116 lacking mutant beta-catenin – cell-based, human colon tumor, dose response (AID 1045); type: functional;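 note: HCT116 colon tumor cells with beta catenin knocked out; cells exposed to compound for 60 hours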
[3] = viability of PTEN-deleted HCT116 cells – cell-based, HCT116 PTEN knockout, dose response (AID 1047); type: functional;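 note: HCT116 colon tumor cells with PTEN knocked out; cells exposed to compound for 60 hours before readout; potency for loss of cell viability measured by luminescence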
cells [4] = type: functional
[5] = target: Luciferin 4-monooxygenase (Photinus pyralis, UniProt P08659); assay: inhibition of purified Photinus pyralis luciferase – biochemical, luminescence, dose response (AID 1891)
Chain of Luciferin 4-monooxygenase (P08659 whole entry): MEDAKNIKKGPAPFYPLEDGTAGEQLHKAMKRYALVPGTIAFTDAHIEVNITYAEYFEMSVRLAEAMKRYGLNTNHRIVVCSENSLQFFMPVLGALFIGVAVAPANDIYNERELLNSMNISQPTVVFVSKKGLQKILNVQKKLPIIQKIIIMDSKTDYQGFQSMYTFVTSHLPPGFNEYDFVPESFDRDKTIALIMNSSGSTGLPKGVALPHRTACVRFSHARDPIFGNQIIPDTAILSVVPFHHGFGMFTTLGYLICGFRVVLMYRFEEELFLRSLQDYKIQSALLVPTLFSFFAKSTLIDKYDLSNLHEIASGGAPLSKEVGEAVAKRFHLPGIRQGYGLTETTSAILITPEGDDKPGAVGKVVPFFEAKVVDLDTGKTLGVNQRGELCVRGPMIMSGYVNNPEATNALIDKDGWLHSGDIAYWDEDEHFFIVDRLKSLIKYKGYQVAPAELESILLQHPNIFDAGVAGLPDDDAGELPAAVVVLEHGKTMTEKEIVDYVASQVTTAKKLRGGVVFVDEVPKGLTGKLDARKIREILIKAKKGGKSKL

[6] = Luminescence Cell-Based Dose Confirmation HTS to Identify Inhibitors of Platelet Dense Granule Release. [Related pubchem assays: 1663 (Primary HTS), 1678 (Summary of Project)]; type: functional
[7] = target: Induced myeloid leukemia cell differentiation protein Mcl-1 (Homo sapiens, UniProt Q07820); type: functional
Chain of Induced myeloid leukemia cell differentiation protein Mcl-1 (Q07820 whole entry): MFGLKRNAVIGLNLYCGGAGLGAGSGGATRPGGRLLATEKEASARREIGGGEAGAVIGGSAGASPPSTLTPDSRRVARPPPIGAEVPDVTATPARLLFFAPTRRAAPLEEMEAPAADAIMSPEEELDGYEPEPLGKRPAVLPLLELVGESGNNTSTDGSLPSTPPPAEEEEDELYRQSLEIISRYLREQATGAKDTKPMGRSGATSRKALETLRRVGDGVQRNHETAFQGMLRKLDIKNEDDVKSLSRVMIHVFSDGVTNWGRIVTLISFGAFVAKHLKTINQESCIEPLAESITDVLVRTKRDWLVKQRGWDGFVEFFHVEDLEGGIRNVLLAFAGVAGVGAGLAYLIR

cells [8] = type: functional, cell-based
cells [9] = type: functional, cell-based; remark: listed apart in the source
Cytochrome P450 1A2 = target: T1, Cytochrome P450 1A2 (Homo sapiens, UniProt P05177);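 note: PubChem cytochrome P450 panel assay, CYP1A2 panel member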
T1 sequence (P05177 whole entry): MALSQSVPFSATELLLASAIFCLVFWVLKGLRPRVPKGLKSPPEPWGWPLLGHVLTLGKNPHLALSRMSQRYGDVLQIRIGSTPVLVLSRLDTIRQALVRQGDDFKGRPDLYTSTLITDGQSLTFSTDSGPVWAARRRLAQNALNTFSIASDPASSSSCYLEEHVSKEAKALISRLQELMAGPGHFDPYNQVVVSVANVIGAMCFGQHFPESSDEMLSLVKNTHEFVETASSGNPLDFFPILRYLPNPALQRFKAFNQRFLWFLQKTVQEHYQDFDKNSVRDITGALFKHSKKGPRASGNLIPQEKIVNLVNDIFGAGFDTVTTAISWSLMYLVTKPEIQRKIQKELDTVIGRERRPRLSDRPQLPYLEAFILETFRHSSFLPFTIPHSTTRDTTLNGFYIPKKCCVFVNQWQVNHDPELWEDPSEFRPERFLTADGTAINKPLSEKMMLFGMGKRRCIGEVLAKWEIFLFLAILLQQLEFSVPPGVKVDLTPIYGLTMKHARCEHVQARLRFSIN

[10] = target: T2, Carboxy-terminal domain RNA polymerase II polypeptide A small phosphatase 1 (Homo sapiens, UniProt Q9GZU7); assay: CTDSP1 inhibitors, concentration-response, biochemical, absorbance readout, ultra-high-throughput screen actives (AID 540297); type: functional
T2 sequence (Q9GZU7 whole entry): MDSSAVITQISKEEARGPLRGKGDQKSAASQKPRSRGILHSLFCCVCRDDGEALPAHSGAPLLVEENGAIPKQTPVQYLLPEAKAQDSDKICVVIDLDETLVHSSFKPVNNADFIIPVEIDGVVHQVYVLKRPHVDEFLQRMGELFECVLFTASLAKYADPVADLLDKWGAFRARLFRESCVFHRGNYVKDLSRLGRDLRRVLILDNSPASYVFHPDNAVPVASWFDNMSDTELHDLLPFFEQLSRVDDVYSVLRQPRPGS

[11] = blockers of bursicon-stimulated LGR2 cAMP reporter – cell-based, HEK293, CRE-luciferase reporter, cherry pick, set 2, dose response (AID 743343); type: functional;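 note: transfected cells were stimulated with diluted bursicon conditioned medium after compound addition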
[12] = A549 cell cytotoxicity, dose response, cytotoxicity control, plate reader, cherry-pick, antagonist series (AID 743412); type: functional, cell-based
[13] = blockade of melanocortin 4 receptor signaling – cell-based, plate reader, cherry pick, counter-screen for LGR2 antagonist project, dose response (AID 743444); type: functional;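 note: transfected HEK 293 cells stimulated with alpha-MSH peptide; potency of inhibitors of the alpha-MSH evoked signal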
[14] = Luminescence Cell-Based Dose Retest to Confirm Inhibitors of Cancer Stem Cells. [Related pubchem assays (depositor defined):AID2717, AID2721]; type: functional; settings: Homo sapiens
[15] = NIH-3T3 fibroblast cytotoxicity, dose response, cytotoxicity control, cell-based, fluorescence, Alamar Blue, secondary assay (AID 2327); type: functional;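 note: NIH-3T3 mouse fibroblasts cultured with fluconazole at 8 µg/mL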
[16] = fluconazole-exposed Candida albicans growth modulators – fluorescence, retest, confirmation (AID 2467); type: functional, cell-based
Cytochrome P450 2C9 = Cytochrome P450 2C9 (Homo sapiens, UniProt P11712)
Chain of Cytochrome P450 2C9 (P11712 whole entry): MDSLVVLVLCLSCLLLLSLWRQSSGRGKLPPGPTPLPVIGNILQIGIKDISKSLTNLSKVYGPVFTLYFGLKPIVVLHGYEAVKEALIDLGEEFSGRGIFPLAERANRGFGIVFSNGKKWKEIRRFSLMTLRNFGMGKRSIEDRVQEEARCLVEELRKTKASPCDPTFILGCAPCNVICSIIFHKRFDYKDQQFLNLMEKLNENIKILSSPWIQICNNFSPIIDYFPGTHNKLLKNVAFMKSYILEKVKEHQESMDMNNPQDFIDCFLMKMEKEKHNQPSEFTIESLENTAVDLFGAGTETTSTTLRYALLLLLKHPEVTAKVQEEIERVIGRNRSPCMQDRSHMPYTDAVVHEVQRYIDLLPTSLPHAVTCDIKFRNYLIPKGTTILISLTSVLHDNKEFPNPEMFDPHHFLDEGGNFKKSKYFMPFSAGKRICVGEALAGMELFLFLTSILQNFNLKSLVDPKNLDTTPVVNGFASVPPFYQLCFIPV

Cytochrome P450 3A4 = Cytochrome P450 3A4 (Homo sapiens, UniProt P08684);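 note: CYP3A4 tested as one member of a cytochrome P450 panel screen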
Chain of Cytochrome P450 3A4 (P08684 whole entry): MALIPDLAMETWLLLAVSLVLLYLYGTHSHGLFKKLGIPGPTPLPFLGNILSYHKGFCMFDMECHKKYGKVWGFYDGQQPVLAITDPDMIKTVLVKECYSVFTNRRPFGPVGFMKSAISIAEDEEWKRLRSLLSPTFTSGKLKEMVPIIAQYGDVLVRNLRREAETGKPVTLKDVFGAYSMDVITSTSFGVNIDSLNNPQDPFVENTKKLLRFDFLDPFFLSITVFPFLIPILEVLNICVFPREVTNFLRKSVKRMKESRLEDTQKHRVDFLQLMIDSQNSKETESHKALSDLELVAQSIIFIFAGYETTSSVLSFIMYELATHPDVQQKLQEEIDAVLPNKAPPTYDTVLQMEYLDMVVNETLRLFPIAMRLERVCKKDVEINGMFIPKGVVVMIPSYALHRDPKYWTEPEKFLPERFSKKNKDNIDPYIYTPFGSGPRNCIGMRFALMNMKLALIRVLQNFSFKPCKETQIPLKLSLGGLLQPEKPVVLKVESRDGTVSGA

[17] = Luminescence Cell-Based Dose Response HTS to Identify Inhibitors of 5'UTR Stem-Loop Driven Prion Protein mRNA Translation in H4 Neuroglioblastoma Cells. [Related pubchem assays: 1827 (Project Summary), 1813 (Primary HTS)]; type: functional
[18] = luciferase reporter signal suppression in cells – H4 neuroglioma cells, luminescence, dose response (AID 1990); type: functional, cell-based
[19] = alpha-synuclein stem-loop luciferase translation blockers – H4 neuroglioma cells, luminescence, confirmation (AID 1988); type: functional, cell-based
[20] = Trypanosoma cruzi growth suppression in host cells – NIH3T3 host cells, beta-gal luminescence, confirmation (AID 2044); type: functional, cell-based;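 note: intracellular parasites grown in NIH/3T3 mouse fibroblasts as host cells; luminescent beta-galactosidase reporter signal from transgenic T. cruzi replicating inside host cells; inhibitors lower the luminescence signal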
[21] = NIH3T3 cell viability loss – ATP luminescence, mouse fibroblasts, counter-screen, dose response (AID 2010); type: functional, cell-based;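 note: cells exposed to compound for about 90 hours before reading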
H9c2 = assay: cells; type: functional, cell-based; settings: Rattus norvegicus, H9c2, Myocardium;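 note: confirmatory concentration-response retest of ultra-high-throughput screening hits for modulation of myocardial damage; cell death induced by hydrogen peroxide oxidative stress; compound pretreatment for 60 min then peroxide exposure for 2 h; potency is for protecting the cells against peroxide damage rather than for killing them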
SN12K1 = assay: cells; type: functional; settings: Homo sapiens
P388/ADR = assay: cells; type: functional; settings: Mus musculus
Paired box protein Pax-8 = Paired box protein Pax-8 (Homo sapiens, UniProt Q06710); assay: PAX8 transcriptional activity inhibition in RMG-I – RMG-I cells, luciferase, cherry-pick, dose response (AID 687027); type: functional, cell-based;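 note: luciferase reporter driven by Pax8 target thyroperoxidase promoter measured by SteadyGlo luminescence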
Chain of Paired box protein Pax-8 (Q06710 whole entry, the tested form may be a part): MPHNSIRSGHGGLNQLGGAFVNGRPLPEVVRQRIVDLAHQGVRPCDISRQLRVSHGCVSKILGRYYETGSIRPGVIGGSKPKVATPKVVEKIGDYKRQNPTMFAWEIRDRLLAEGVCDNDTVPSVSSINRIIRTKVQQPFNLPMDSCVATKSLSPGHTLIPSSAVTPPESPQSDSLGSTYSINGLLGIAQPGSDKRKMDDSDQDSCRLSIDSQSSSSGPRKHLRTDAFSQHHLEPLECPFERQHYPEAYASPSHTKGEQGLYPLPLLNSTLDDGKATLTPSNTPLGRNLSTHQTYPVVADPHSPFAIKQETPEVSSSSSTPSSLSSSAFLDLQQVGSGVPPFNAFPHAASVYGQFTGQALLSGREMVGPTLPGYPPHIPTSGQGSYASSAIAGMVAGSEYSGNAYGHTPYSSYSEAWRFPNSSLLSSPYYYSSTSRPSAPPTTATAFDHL

[22] = HIV-1 AD8 envelope cell-cell fusion blockers – cherry-pick, dose response (AID 652062); type: functional, cell-based;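 note: luciferase signal from cell-cell fusion driven by HIV-1 clade B AD8 Env; potency is for inhibitors of fusion seen as a drop in luminescence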
Cytochrome P450 2C19 = Cytochrome P450 2C19 (Homo sapiens, UniProt P33261); assay: Cytochrome panel assay with activity outcomes. Panel member name: p450-cyp2c19 Compounds with AC50 equal or less than 10 uM are considered active; type: functional; settings: read-out: AC50
Chain of Cytochrome P450 2C19 (P33261 whole entry): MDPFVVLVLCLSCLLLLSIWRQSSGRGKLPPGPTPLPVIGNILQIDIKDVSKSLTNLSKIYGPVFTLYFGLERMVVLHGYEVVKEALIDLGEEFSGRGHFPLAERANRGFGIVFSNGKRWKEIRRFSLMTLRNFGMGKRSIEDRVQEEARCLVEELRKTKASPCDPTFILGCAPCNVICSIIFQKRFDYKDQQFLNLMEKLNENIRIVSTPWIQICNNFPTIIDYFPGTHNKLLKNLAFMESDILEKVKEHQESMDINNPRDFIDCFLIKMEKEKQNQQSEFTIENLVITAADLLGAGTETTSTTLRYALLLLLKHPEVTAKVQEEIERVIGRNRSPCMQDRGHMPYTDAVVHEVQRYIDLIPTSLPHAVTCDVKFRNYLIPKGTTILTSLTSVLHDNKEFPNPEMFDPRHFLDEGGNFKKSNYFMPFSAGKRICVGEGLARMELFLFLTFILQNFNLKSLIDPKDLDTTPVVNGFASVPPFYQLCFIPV

[23] = P. falciparum Dd2 growth inhibitors, dose response, SYBR Green, cherry-picked samples (AID 1159567); type: functional, cell-based

CCCCn1nc(C(=O)N[C@@H](CCSC)c2nc3ccccc3[nH]2)c2ccccc2c1=O
CC50 [1]: > 40 µM (active)

CC1CCN(Cc2c(O)ccc3c(O)c(-c4nc5ccccc5s4)c(=N)oc23)CC1
EC50 [2]: 16.8 µM (active) | EC50 [3]: 16.6 µM (active)

Cc1ccc(CN2CC(C(=O)OCc3ccccc3Cl)CC2=O)cc1 (stereo not given)
IC50 (cells [4]): 7.41 µM (active)

Cc1cccc(OCc2nnc(SCC(=O)Nc3ncc(C)s3)o2)c1
EC50 [5]: > 112 µM (not active) | EC50 [6]: > 112 µM (not active)

CCOC(=O)COc1ccc(C(=O)NC2CCCCC2)cc1
IC50 (cells [4]): 7.69 µM (active)

COc1cccc(-c2nc(-c3ccc(C(=O)O)cc3)no2)c1
EC50 [5]: 0.794 µM (active) | EC50 [6]: 4.03 µM (active)

Cn1cc(NC(=O)CCl)cn1
CC50 [1]: > 40 µM (active)

CC(=O)NC1=C(NC2CCS(=O)(=O)C2)C(=O)c2ccccc2C1=O (stereo not given)
IC50 [7]: 2.54 µM (active)

CCNc1nc(Oc2ccc(=O)n(-c3ccccc3)n2)nc(N(C)C)n1
EC50 [5]: > 112 µM (not active) | EC50 [6]: > 112 µM (not active)

O=C(CSc1nnc(C2CC2)n1-c1ccccc1)Nc1ccc(N2CCOCC2)cc1
EC50 [5]: > 112 µM (not active) | EC50 [6]: > 112 µM (not active)

CCN(C(=O)CSc1nc[nH]n1)C1CCCCC1
EC50 (cells [8]): > 350 µM (not active) | EC50 (cells [9]): > 350 µM (not active)

COc1ccc2c(c1)c(=O)oc1cc(OCC(=O)NC3CC3)ccc12
EC50 [2]: 37.7 µM (active) | EC50 [3]: 14.1 µM (active)

COc1ccc([N+](=O)[O-])cc1C1NN=C(c2cccc3ccccc23)S1 (stereo not given)
EC50 [5]: > 112 µM (not active) | EC50 [6]: > 112 µM (not active)

CC(=O)N1CCC2(CC1)CC(=O)c1cc(OCC(=O)N3CCN(C)CC3)ccc1O2
AC50 (Cytochrome P450 1A2): 39.8 µM (inconclusive)

O=C(COC(=O)c1ccc(S(=O)(=O)N2CCCCC2)cc1)NCc1ccco1
IC50 [10]: 10.5 µM (active)

COC(=O)C1CCN(C(=O)COC(=O)CNS(=O)(=O)c2ccc(SC)c([N+](=O)[O-])c2)CC1
IC50 [10]: 13.5 µM (active)

CN(C)c1cccc(C(=O)Nc2nc3ccccc3[nH]2)c1
AC50 [11]: 6.18 µM (active) | AC50 [12]: > 52 µM (inactive) | AC50 [13]: 5.96 µM (active)

COc1cc(NS(=O)(=O)c2ccc(N/C=C(\C#N)c3nc4cc(Cl)ccc4o3)cc2)nc(OC)n1
EC50 [2]: 14.7 µM (active) | EC50 [3]: 12.7 µM (active) | AC50 [14]: 2.08 µM (active)

O=C(C1CCC1)N1CCN(S(=O)(=O)c2ccc(Br)cc2Cl)CC1
CC50 [1]: > 40 µM (active)

CCc1c(C)nc2ccc(OC)cc2c1S
IC50 [7]: 0.628 µM (active)

O=C(c1ccc2c(c1)OCO2)N1CCC2(CC1)Oc1ccc(F)cc1C(=O)C21CC(c2cccnc2)=NO1 (stereo not given)
EC50 [15]: 49.2 µM (active) | EC50 [16]: 0.566 µM (inconclusive)

O=C1CC(/C=C/c2ccc(Cl)cc2)=Nc2ccccc2N1
CC50 [1]: 23.8 µM (active)

CCOc1ccc2nc(N=C(S)N(C)C)sc2c1
EC50 [15]: > 150 µM (inactive) | EC50 [16]: 2.33 µM (active)

Cn1cc(SCC(=O)Nc2nc3ccccc3s2)c2ccccc21
EC50 [5]: > 112 µM (not active) | EC50 [6]: > 112 µM (not active)

CC1=C(C(N)=O)C(c2ccccn2)n2nc(SCc3ccccc3Cl)nc2N1 (stereo not given)
AC50 (Cytochrome P450 1A2): 15.8 µM (inconclusive) | AC50 (Cytochrome P450 2C9): 20 µM (inconclusive)

COc1ccc(CNC(=O)/C=C\c2ccc3[nH]cc(CCN(C)C)c3c2)cc1
AC50 (Cytochrome P450 1A2): 39.8 µM (inconclusive)

O=C1NC(=O)N(CCC2=CCCCC2)C(=O)/C1=C(O)/C=C/c1ccc2c(c1)OCO2
EC50 [2]: 15 µM (active) | EC50 [3]: 17.1 µM (active) | AC50 [14]: 1.37 µM (active)

CC(C)Cc1nc(N2CCN(C(=O)c3ccccc3)CC2)c(C#N)c2c1CCC2
AC50 (Cytochrome P450 1A2): 25.1 µM (inconclusive)

Cc1cc(Cl)nc(NC(=O)CSc2ccc(Cl)cc2)n1
AC50 (Cytochrome P450 1A2): 5.01 µM (inconclusive)

N#C/C(=C\c1ccc[nH]1)C(=O)Nc1ccccc1[N+](=O)[O-]
IC50 [10]: 7.3 µM (active)

COc1ccc(C(=O)N2CCC[C@@]3(CCN(C(=O)NC(C)C)C3)C2)cc1
AC50 (Cytochrome P450 1A2): 12.6 µM (inconclusive) | AC50 (Cytochrome P450 3A4): 20 µM (inconclusive)

COc1cnn(-c2ccc(Br)cc2)c(=O)c1SCc1ccccc1
IC50 [7]: 3.25 µM (not active)

O=C(NC1CCCCC1)C(c1cccs1)N(CCCN1CCOCC1)C(=O)c1ccc(-c2ccccc2)[nH]1 (stereo not given)
CC50 [1]: > 40 µM (active)

COc1ccc(NC(=O)c2cc(S(=O)(=O)N3CCOCC3)cn2C)c(OC)c1
EC50 [5]: > 112 µM (not active) | EC50 [6]: > 112 µM (not active)

COc1ccc(/C=C(/NC(=O)c2ccccc2)c2nc3cc(Cl)ccc3[nH]2)cc1OC
EC50 [15]: > 150 µM (inconclusive) | EC50 [16]: 4.44 µM (active)

CCCCn1c(CCC(=O)O)ccc1-c1cccs1
EC50 [5]: > 112 µM (not active) | EC50 [6]: > 112 µM (not active)

C=CCOc1nc(-c2ccccc2Cl)nc2ccccc12
EC50 (cells [8]): > 350 µM (not active) | EC50 (cells [9]): > 350 µM (not active) | EC50 [17]: > 120 µM (not active) | EC50 [18]: 69.1 µM (active) | EC50 [19]: 17.4 µM (active)

CC(C)OC(=O)CCCCCN1C(=O)CSC1=S
EC50 [20]: 4.77 µM (active) | CC50 [1]: 31.3 µM (active) | EC50 [21]: 8.46 µM (active) | IC50 (cells [4]): 6.29 µM (active)

O=C(NCc1ccco1)C1Cc2ccccc2CN1S(=O)(=O)c1ccccc1F (stereo not given)
IC50 [10]: 5.41 µM (active)

CNC(=O)c1ccc(-c2sc3nc(N4CCOCC4)c4c(c3c2N)CCCC4)o1
EC50 [2]: 24.6 µM (active) | EC50 [3]: 23.5 µM (active) | IC50 (H9c2): 14.2 µM (active)

Cn1c(=O)c(Oc2ccc(Cl)cc2)c(O)c2ccccc21
IC50 (cells [4]): 3.7 µM (active)

CCOc1ccc(C(C)=O)cc1N1C(=O)C2C3C=CC(C3)C2C1=O (stereo not given)
IC50 [10]: 15.8 µM (active)

CN(C)c1cccc(OC(=O)NCCCl)c1
GI50 (SN12K1): > 100 µM (inactive) | GI50 (P388/ADR): 31 µM (inactive)

CCCN(C)C[C@H]1OCCCC[C@@H](C)Oc2ccc(NC(=O)Nc3ccc(C(F)(F)F)cc3)cc2C(=O)N([C@H](C)CO)C[C@H]1C
AC50 (Paired box protein Pax-8): 23.1 µM (active)

CCc1cnc(N2[C@H](C#N)[C@H](c3ccc(C#Cc4ccccc4F)cc3)[C@H]2CO)s1
AC50 [22]: 33.6 µM (active)

COc1cc2c(cc1OC)C(c1ccc(N)cc1)=NNC(=O)C2
AC50 (Cytochrome P450 1A2): 39.8 µM (inconclusive) | AC50 (Cytochrome P450 2C9): 39.8 µM (inconclusive) | AC50 (Cytochrome P450 2C19): 15.8 µM (inconclusive)

Cc1cccc(OCC(=O)NCC(=O)N/N=C/c2cccnc2)c1
EC50 (cells [8]): > 350 µM (not active) | EC50 (cells [9]): > 350 µM (not active)

CCOC(=O)c1cc(C(O)(C(=O)OC)C(F)(F)F)c(/N=C/N(C)C)o1 (stereo not given)
IC50 [7]: < 0.4 µM (not active)

CCS(=O)(=O)N1CCC2(CC1)CN(C(=O)Nc1cccc(F)c1)[C@H](CO)c1c2c2ccc(OC)cc2n1C
AC50 [23]: 4.52 µM (active)

CCCc1cn([C@@H]2C[C@@H]3O[C@H](CO)CC[C@@H]3O[C@@H]2CCc2ccc(-c3cccc(OC)c3)cc2)nn1
AC50 [23]: 2.81 µM (active)
